From patent US12077503B2, “Substituted cyclic amides and their use as herbicides” (FMC CORPORATION, priority 2015, dated 2024)

Legend:
Assay in all cases: Test C preemergence
Type in all cases: in vivo
[1] = system: blackgrass (Alopecurus myosuroides); details: for Plant response rating, Blackgrass: scale 0 to 100, 0 no effect, 100 complete control
Procedure, shortened: (§1)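 Assessment: visual, 13–15 d after treatment, 0 (no effect) to 100 (complete control) relative to controls. Treatment: preemergence to seeds in loam-sand soil, or postemergence to 1- to 4-leaf plants in peat-based medium. Formulation: non-phytotoxic solvent mixture with surfactant.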

[2] = system: lambsquarters (Chenopodium album); details: for Plant response rating, Lambsquarters: scale 0 to 100, 0 no effect, 100 complete control
Procedure, shortened: as §1

[3] = system: foxtail, giant (giant foxtail, Setaria faberii); details: for Plant response rating, Foxtail, Giant: scale 0 to 100, 0 no effect, 100 complete control
Procedure, shortened: as §1

[4] = system: wheat (winter wheat, Triticum aestivum); details: for Plant response rating, Wheat: scale 0 to 100, 0 no effect, 100 complete control
Procedure, shortened: as §1

corn (Zea mays) = details: for Plant response rating, Corn: scale 0 to 100, 0 no effect, 100 complete control
Procedure, shortened: as §1

[5] = system: ryegrass, Italian (Italian ryegrass, Lolium multiflorum); details: for Plant response rating, Ryegrass, Italian: scale 0 to 100, 0 no effect, 100 complete control
Procedure, shortened: as §1

[6] = system: waterhemp (common waterhemp, Amaranthus rudis); details: for Plant response rating, Waterhemp: scale 0 to 100, 0 no effect, 100 complete control
Procedure, shortened: as §1

[7] = system: nutsedge, yellow (yellow nutsedge, Cyperus esculentus); details: for Plant response rating, Nutsedge, Yellow: scale 0 to 100, 0 no effect, 100 complete control
Procedure, shortened: as §1

soybean (Glycine max) = details: for Plant response rating, Soybean: scale 0 to 100, 0 no effect, 100 complete control
Procedure, shortened: as §1

[8] = system: oilseed rape (Brassica napus); details: for Plant response rating, Oilseed Rape: scale 0 to 100, 0 no effect, 100 complete control
Procedure, shortened: as §1

[9] = system: Galium (catchweed bedstraw, Galium aparine); details: for Plant response rating, Galium: scale 0 to 100, 0 no effect, 100 complete control
Procedure, shortened: as §1

[10] = system: morningglory (Ipomoea coccinea); details: for Plant response rating, Morningglory: scale 0 to 100, 0 no effect, 100 complete control
Procedure, shortened: as §1

[11] = system: ragweed (common ragweed, Ambrosia elatior); details: for Plant response rating, Ragweed: scale 0 to 100, 0 no effect, 100 complete control
Procedure, shortened: as §1

[12] = system: johnsongrass (Sorghum halepense); details: for Plant response rating, Johnsongrass: scale 0 to 100, 0 no effect, 100 complete control
Procedure, shortened: as §1

[13] = system: velvetleaf (Abutilon theophrasti); details: for Plant response rating, Velvetleaf: scale 0 to 100, 0 no effect, 100 complete control
Procedure, shortened: as §1

[14] = system: crabgrass, large (large crabgrass, Digitaria sanguinalis); details: for Plant response rating, Crabgrass, Large: scale 0 to 100, 0 no effect, 100 complete control
Procedure, shortened: as §1

[15] = system: barnyardgrass (Echinochloa crus-galli); details: for Plant response rating, Barnyardgrass: scale 0 to 100, 0 no effect, 100 complete control
Procedure, shortened: as §1

[16] = 31 g ai/ha, 0 is no effect, 100 is complete control

In the case of `CN1CC(c2cccc(C(F)(F)F)c2)C(C(=O)Nc2cccc(F)c2F)C1=O` (centres unmarked) [Compound 636], the “Plant response rating (scale of 0 to 100), Blackgrass” value [1, 16] is reported as 90, the “Plant response rating, Blackgrass” value ([1]; 62 g ai/ha) is reported as 85 and the “Plant response rating, Blackgrass” value ([1]; 125 g ai/ha) is reported as 90. The “Plant response rating, Blackgrass” value ([1]; 250 g ai/ha) was 90, the “Plant response rating (scale of 0 to 100), Lambsquarters” value [2, 16] was 40 and the “Plant response rating, Lambsquarters” value ([2]; 62 g ai/ha) was 40. The “Plant response rating, Lambsquarters” value ([2]; 125 g ai/ha) was 55, the “Plant response rating, Lambsquarters” value ([2]; 250 g ai/ha) was 65 and the “Plant response rating (scale of 0 to 100), Foxtail, Giant” value [3, 16] was 85. For the same compound, the “Plant response rating, Foxtail, Giant” value ([3]; 62 g ai/ha) was 90, the “Plant response rating, Foxtail, Giant” value ([3]; 125 g ai/ha) was 90 and the “Plant response rating, Foxtail, Giant” value ([3]; 250 g ai/ha) was 90. For the same compound, the “Plant response rating (scale of 0 to 100), Wheat” value [4, 16] was 35, the “Plant response rating, Wheat” value ([4]; 62 g ai/ha) was 45 and the “Plant response rating, Wheat” value ([4]; 125 g ai/ha) was 65. The “Plant response rating, Wheat” value ([4]; 250 g ai/ha) was 75, the “Plant response rating (scale of 0 to 100), Corn” value (corn (Zea mays); [16]) was 60 and the “Plant response rating, Corn” value (corn (Zea mays); 62 g ai/ha) was 80. The “Plant response rating, Corn” value (corn (Zea mays); 125 g ai/ha) was 85, the “Plant response rating, Corn” value (corn (Zea mays); 250 g ai/ha) was 90 and the “Plant response rating (scale of 0 to 100), Ryegrass, Italian” value [5, 16] was 70. For the same compound, the “Plant response rating, Ryegrass, Italian” value ([5]; 62 g ai/ha) was 30, the “Plant response rating, Ryegrass, Italian” value ([5]; 125 g ai/ha) was 50 and the “Plant response rating, Ryegrass, Italian” value ([5]; 250 g ai/ha) was 90. For the same compound, the “Plant response rating (scale of 0 to 100), Waterhemp” value [6, 16] was 65, the “Plant response rating, Waterhemp” value ([6]; 62 g ai/ha) was 75 and the “Plant response rating, Waterhemp” value ([6]; 125 g ai/ha) was 85. The “Plant response rating, Waterhemp” value ([6]; 250 g ai/ha) was 85, the “Plant response rating (scale of 0 to 100), Nutsedge, Yellow” value [7, 16] was 0 and the “Plant response rating, Nutsedge, Yellow” value ([7]; 62 g ai/ha) was 75. The “Plant response rating, Nutsedge, Yellow” value ([7]; 125 g ai/ha) was 0, the “Plant response rating, Nutsedge, Yellow” value ([7]; 250 g ai/ha) was 60 and the “Plant response rating (scale of 0 to 100), Soybean” value (soybean (Glycine max); [16]) was 0. The “Plant response rating, Soybean” value (soybean (Glycine max); 62 g ai/ha) was 75, the “Plant response rating, Soybean” value (soybean (Glycine max); 125 g ai/ha) was 0 and the “Plant response rating, Soybean” value (soybean (Glycine max); 250 g ai/ha) was 0. The “Plant response rating (scale of 0 to 100), Oilseed Rape” value [8, 16] was 80, the “Plant response rating, Oilseed Rape” value ([8]; 62 g ai/ha) was 60 and the “Plant response rating, Oilseed Rape” value ([8]; 125 g ai/ha) was 85. The “Plant response rating, Oilseed Rape” value ([8]; 250 g ai/ha) was 90, the “Plant response rating (scale of 0 to 100), Galium” value [9, 16] was 85 and the “Plant response rating, Galium” value ([9]; 62 g ai/ha) was 85. For the same compound, the “Plant response rating, Galium” value ([9]; 125 g ai/ha) was 90, the “Plant response rating, Galium” value ([9]; 250 g ai/ha) was 90 and the “Plant response rating (scale of 0 to 100), Morningglory” value [10, 16] was 5. The “Plant response rating, Morningglory” value ([10]; 62 g ai/ha) was 25, the “Plant response rating, Morningglory” value ([10]; 125 g ai/ha) was 35 and the “Plant response rating, Morningglory” value ([10]; 250 g ai/ha) was 65. For the same compound, the “Plant response rating (scale of 0 to 100), Ragweed” value [11, 16] was 20, the “Plant response rating, Ragweed” value ([11]; 62 g ai/ha) was 65 and the “Plant response rating, Ragweed” value ([11]; 125 g ai/ha) was 65. The “Plant response rating, Ragweed” value ([11]; 250 g ai/ha) was 80, the “Plant response rating (scale of 0 to 100), Johnsongrass” value [12, 16] was 80 and the “Plant response rating, Johnsongrass” value ([12]; 62 g ai/ha) was 85. The “Plant response rating, Johnsongrass” value ([12]; 125 g ai/ha) was 85, the “Plant response rating, Johnsongrass” value ([12]; 250 g ai/ha) was 90 and the “Plant response rating (scale of 0 to 100), Velvetleaf” value [13, 16] was 5. For the same compound, the “Plant response rating, Velvetleaf” value ([13]; 62 g ai/ha) was 50, the “Plant response rating, Velvetleaf” value ([13]; 125 g ai/ha) was 55 and the “Plant response rating, Velvetleaf” value ([13]; 250 g ai/ha) was 55. For the same compound, the “Plant response rating (scale of 0 to 100), Crabgrass, Large” value [14, 16] was 95, the “Plant response rating, Crabgrass, Large” value ([14]; 62 g ai/ha) was 98 and the “Plant response rating, Crabgrass, Large” value ([14]; 125 g ai/ha) was 100. For the same compound, the “Plant response rating, Crabgrass, Large” value ([14]; 250 g ai/ha) was 100, the “Plant response rating (scale of 0 to 100), Barnyardgrass” value [15, 16] was 90 and the “Plant response rating, Barnyardgrass” value ([15]; 62 g ai/ha) was 90. The “Plant response rating, Barnyardgrass” value ([15]; 125 g ai/ha) was 95 and the “Plant response rating, Barnyardgrass” value ([15]; 250 g ai/ha) was 95.
